Results on four compounds are retold here after US8865894B2, “Oxazolidin-2-one compounds and uses thereof” (Novartis AG, priority 2012, dated 2014).

In this experiment the target is T1, human PI3Kbeta p110 catalytic subunit (Rat-1 pBABEpuro Myr-HA-hp110 beta) (Homo sapiens, UniProt P42338).
T1 construct: Myr (myristoylation signal) (N); HA (N); expressed in transfected cells; host or cells: Rat-1
T1 sequence (P42338 whole entry): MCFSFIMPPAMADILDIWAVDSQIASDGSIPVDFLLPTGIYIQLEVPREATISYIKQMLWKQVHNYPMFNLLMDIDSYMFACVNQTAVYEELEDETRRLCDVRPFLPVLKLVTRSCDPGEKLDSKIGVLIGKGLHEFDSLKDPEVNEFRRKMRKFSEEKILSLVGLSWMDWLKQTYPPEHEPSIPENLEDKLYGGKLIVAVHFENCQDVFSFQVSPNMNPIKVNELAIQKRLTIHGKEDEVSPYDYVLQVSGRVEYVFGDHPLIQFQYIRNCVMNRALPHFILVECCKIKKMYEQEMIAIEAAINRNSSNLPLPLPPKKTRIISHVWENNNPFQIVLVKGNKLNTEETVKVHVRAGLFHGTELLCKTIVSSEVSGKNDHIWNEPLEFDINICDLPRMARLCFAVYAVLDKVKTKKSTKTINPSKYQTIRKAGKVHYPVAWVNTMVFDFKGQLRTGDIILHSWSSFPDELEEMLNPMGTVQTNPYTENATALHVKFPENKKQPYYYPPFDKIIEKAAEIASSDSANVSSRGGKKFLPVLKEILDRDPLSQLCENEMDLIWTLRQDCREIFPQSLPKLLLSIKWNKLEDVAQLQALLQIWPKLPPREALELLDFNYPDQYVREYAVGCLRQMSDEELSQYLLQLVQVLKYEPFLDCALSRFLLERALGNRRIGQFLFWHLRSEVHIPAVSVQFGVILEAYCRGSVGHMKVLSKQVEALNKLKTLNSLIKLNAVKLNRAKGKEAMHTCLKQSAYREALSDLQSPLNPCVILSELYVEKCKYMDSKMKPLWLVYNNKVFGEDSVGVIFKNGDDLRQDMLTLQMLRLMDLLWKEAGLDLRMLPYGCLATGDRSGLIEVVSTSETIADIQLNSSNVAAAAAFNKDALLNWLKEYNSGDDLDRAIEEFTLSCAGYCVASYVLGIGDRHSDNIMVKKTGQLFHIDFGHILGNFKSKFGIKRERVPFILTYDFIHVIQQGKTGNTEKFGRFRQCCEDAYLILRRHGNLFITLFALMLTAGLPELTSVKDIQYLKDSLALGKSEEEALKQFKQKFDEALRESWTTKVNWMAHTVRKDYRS
T1 sequence (Q63787 whole entry partner): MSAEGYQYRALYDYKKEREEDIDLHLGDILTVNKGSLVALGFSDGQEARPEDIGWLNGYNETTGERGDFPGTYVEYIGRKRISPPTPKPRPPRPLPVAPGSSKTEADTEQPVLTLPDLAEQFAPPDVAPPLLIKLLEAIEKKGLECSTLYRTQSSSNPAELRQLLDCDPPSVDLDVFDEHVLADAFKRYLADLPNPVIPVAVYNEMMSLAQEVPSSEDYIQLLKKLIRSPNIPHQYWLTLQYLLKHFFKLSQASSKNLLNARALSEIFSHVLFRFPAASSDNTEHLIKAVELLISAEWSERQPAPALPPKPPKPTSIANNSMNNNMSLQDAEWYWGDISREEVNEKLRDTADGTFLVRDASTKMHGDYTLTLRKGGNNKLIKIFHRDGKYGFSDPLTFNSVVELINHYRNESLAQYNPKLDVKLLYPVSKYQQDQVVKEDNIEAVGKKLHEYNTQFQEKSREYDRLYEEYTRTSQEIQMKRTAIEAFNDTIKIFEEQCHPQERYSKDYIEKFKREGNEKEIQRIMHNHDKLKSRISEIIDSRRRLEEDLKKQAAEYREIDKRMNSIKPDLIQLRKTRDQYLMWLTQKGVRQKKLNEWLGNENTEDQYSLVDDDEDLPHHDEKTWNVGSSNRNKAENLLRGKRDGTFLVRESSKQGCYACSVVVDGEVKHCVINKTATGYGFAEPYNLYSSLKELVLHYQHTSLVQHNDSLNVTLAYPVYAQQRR
As to the kind of experiment: Cellular assay PI3Kbeta (p-Akt(S473) SureFire, Rat-1_PI3beta cells). The experiment is classed as cell-based. The following applies: p-Akt(S473), 1 h compound treatment; read-out: Rat1-PI3Kb/ IC50. The text has this:
AlphaScreen (Amplified Luminescent Proximity Homogeneous Assay, ALPHA, Perkin Elmer) is a non-radioactive bead-based proximity assay technology to study biomolecular interactions in a homogenous microtiter plate format. The brand name SureFire denotes AlphaScreen assays that are adapted to quantify the phosphorylation of endogenous cellular proteins in cell lysates, by using matched antibody pairs, which consist of an anti-phospho-kinase and an anti-kinase antibody. The assay allows characterization of kinase signaling in cells as well as measurement of kinase inhibitor effects. The AlphaScreen technology provides several advantages over standard assay techniques such as ELISA, as it avoids time-consuming washing procedures and reduces plate handling. Furthermore, it is miniaturizable at least to a 384-well format and provides sensitivity down to the femtomolar range, dependent on the affinity of the antibodies included in the individual AlphaScreen SureFire assay kit. High sensitivity is reached by an intrinsic amplification mechanism, which involves production of singlet oxygen molecules. SureFire assay kits are commercially available for specific targets and include pairs of validated antibodies (PerkinElmer). This report describes common procedures applied for AlphaScreen SureFire assays and respective semi-automated steps for routine kinase inhibitor profiling in cell-based assays.
The Rat-1 cell lines stably overexpressing activated PI3K class I isoforms Rat-1 pBABEpuro Myr-HA-hp110 delta (Rat-1_PI3Kdelta) and Rat-1 pBABEpuro Myr-HA-hp110alpha (Rat-1_PI3Kalpha) and Rat-1 pBABEpuro Myr-HA-hp110 beta (Rat-1_PI3beta) were prepared as described (Maira S M, Stauffer F, Brueggen J, Furet P, Schnell C, Fritsch C, Brachmann S, Chène P, de Pover A, Schoemaker K, Fabbro D, Gabriel D, Simonen M, Murphy L, Finan P, Sellers W, García-Echeverría C (2008), Mol Cancer Ther. 7:1851-63 and Maira S M, Pecchi S, Brueggen J, Huh K, Schnell C, Fritsch C, Nagel T, Wiesmann M, Brachmann S, Dorsch M, Chène P, Schoemaker K, De Pover A, Menezes D, Fabbro D, Sellers W, García-Echeverría C, Voliva C F (2011), Mol. Cancer Ther., accepted). All cell lines were cultivated in complete growth medium (DMEM high glucose, 10% (v/v) fetal bovine serum, 1% (v/v) MEM NEAA, 10 mM HEPES, 2 mM L-glutamine, puromycin (10 μg/mL for Rat-1_PI3Kdelta and Rat-1_PI3Kalpha, 4 ug/mL for Rat-1_PI3beta), 1% (v/v) Pen/Strep) to 90% confluency at 37° C./5% CO2/90% humidity in a humidified CO2 incubator and were split twice a week.
The following materials were used for p-AKT(S473) detection in Rat-1 cell lysates: Dulbecco's modified Eagle's medium (DMEM) high glucose (Gibco Invitrogen, Basel, Switzerland, Cat. No. 41965), Heat Inactivated Fetal Bovine Serum, Qualified (HI FBS; Gibco Invitrogen, Basel, Switzerland, Lot. No. 16140), MEM non essential amino acids (NEAA; Gibco Invitrogen, Basel, Switzerland, Cat. No. 11140), HEPES (Gibco Invitrogen, Basel, Switzerland, Cat. No. 15630), Penicillin/Streptomycin (Pen/Strep, 100×; Gibco Invitrogen, Basel, Switzerland, Cat. No. 15140-122), L-Glutamine (Gibco Invitrogen, Basel, Switzerland, Cat. No. 25030), Puromycin (Sigma Aldrich, Buchs, Switzerland, Cat. No. P9620), DMSO (MERCK, Dietikon, Switzerland, Cat. No. 8.02912.2500), H2O, MilliQ-H2O unless otherwise stated (MILLIPORE QGARDOOR1, Millipore, Zug, Switzerland), Bovine serum albumine (BSA; Sigma Aldrich, Buchs, Switzerland Cat. No. A8412), SureFire p-Akt 1/2 (Ser473) Assay Kit (PerkinElmer, Schwerzenbach, Switzerland, Cat. No. TGRAS50K).
The p-Akt(S473) SureFire assay measures the phosphorylation of endogenous cellular Akt 1/2 at Ser473 in cell lysates. Using Rat-1 cells stably expressing myr-HA-tagged versions of the human PI3Kdelta, PI3Kalpha, or PI3Kbeta p110 catalytic subunit isoforms, the assay was developed as a two-plate protocol in a 384-well format.
As to `C[C@H]1[C@@H](CO)OC(=O)N1c1cc(-c2cnc(N)nc2C(F)(F)F)nc(N2CCOCC2)n1` [Example 19, (4S,5S)-3-(2′-Amino-2-morpholin-4-yl-4′-trifluoromethyl-[4,5′]bipyrimidinyl-6-yl)-5-hydroxymethyl-4-methyl-oxazolidin-2-one], the IC50 was 0.071 µM.

As to `Nc1ncc(-c2cc(N3C[C@H](CO)OC3=O)nc(N3CCOCC3)n2)c(C(F)(F)F)n1` [Example 20, (R)-3-(2′-Amino-2-morpholin-4-yl-4′-trifluoromethyl-[4,5′]bipyrimidinyl-6-yl)-5-hydroxymethyl-oxazolidin-2-one], the IC50 stood at 0.124 µM.

For `Nc1ncc(-c2cc(N3C(=O)O[C@H]4COC[C@H]43)nc(N3CCOCC3)n2)c(C(F)(F)F)n1` [Example 21, (3aR,6aR)-3-(2′-amino-2-morpholino-4′-(trifluoromethyl)-[4,5′-bipyrimidin]-6-yl)-tetrahydrofuro[3,4-d]oxazol-2(3H)-one], the IC50 was 0.046 µM.

Consider `C[C@H]1[C@@H](CCO)OC(=O)N1c1cc(-c2cnc(N)nc2C(F)(F)F)nc(N2CCOCC2)n1` [Example 23, (4S,5R)-3-(2′-Amino-2-morpholino-4′-(trifluoromethyl)-[4,5′-bipyrimidin]-6-yl)-5-(2-hydroxyethyl)-4-methyloxazolidin-2-one], for which the IC50 worked out at 0.027 µM.
